Data published in patent US20090062369A1, “USE OF SECRETORY PHOSPHOLIPASE A2 (SPLA2) INHIBITORS TO DECREASE SPLA2 LEVELS” (priority 2007, published 2009).

Test system: serum sPLA2
Test: Effect of twice-a-day oral A-002 on serum sPLA2 levels in subjects with stable coronary artery disease (Example 6)
Assay type: in vivo, human
Experimental: The protocol for preparing standard curve, test, and quality control samples for use in the assay disclosed herein is set forth in Example 5. Samples are prepared according to this protocol, then loaded in duplicate onto a plate (Cayman catalog no. 485002 or equivalent) that has been pre-coated with a monoclonal sPLA2 antibody (“capture antibody”) that specifically binds sPLA2. In certain embodiments, the capture antibody may interact with a specific form of sPLA2, such as for example sPLA2 type IIA.
sPLA2 acetylcholinesterase:Fab′ conjugate (AChE:Fab′) (“conjugate”) (Cayman catalog no. 485000 or equivalent) is reconstituted in EIA buffer (Cayman catalog no. 400060 or equivalent). Cayman EIA buffer is 1M phosphate, pH 7.0, 1% BSA, 4M NaCl, 10 mM EDTA, and 0.1% sodium azide. Reconstituted conjugate is added to each well of the plate. The conjugate binds a different sPLA2 epitope than the capture antibody, allowing the capture antibody and the conjugate to form a “sandwich” that is immobilized on the plate. Excess reagents are washed away, and the plate is covered and incubated overnight at 2-8° C.
Prior to development, the wells are washed five to six times with wash buffer (Cayman catalog no. 400062 or equivalent). To develop the plate, Ellman's Reagent (Cayman catalog no. 400050 or equivalent) is reconstituted in water and added to each well according to manufacturer instructions. The reconstituted Ellman's Reagent must be used the same day it is prepared because it is unstable. Ellman's Reagent contains an AChE substrate. Specifically, Ellman's Reagent contains acetylthiocholine and 5,5′-dithio-bis-(2-nitrobenzoic acid). Hydrolysis of acetylthiocholine by acetylcholinesterase produces thiocholine, which reacts with 5,5′-dithio-bis-(2-nitrobenzoic acid) to produce 5-thio-2-nitrobenzoic acid. 5-thio-2-nitrobenzoic acid has a strong absorbance at 412 nm. The intensity of absorbance at this wavelength is directly proportional to the concentration of bound conjugate, which is in turn is directly proportional to the concentration of sPLA2 present (Absorbance a [AChE:Fab′ conjugate] α [sPLA2]). During the development step, the plate is shaken, preferably in the dark. In certain embodiments the development time for the assay is 0.5 to 3 hours, preferably 1 to 1.5 hours. At the end of the development period, the high sPLA2 standards should have greater yellow color development than the zero standards. Absorbance of each well is measured at 400-420 nm using a micro-well plate reader. In certain embodiments, absorbance is measured at about 405 nm.
Absorbance readings for duplicate wells are averaged, and the relative standard deviation and % CV are calculated. Standard curve data are used to generate a four parameter curve, and quality control and test samples are measured against the appropriate standard curve (i.e., the standard curve with the same serum content). In order for a test to be considered valid, variation between duplicate wells should be no more than about 25%, and negative controls (blanks) for each standard curve should have a mean absorbance of less than about 0.3.
The method disclosed herein for measuring sPLA2 levels in serum was utilized to determine the effect of administering certain sPLA2 inhibitors on sPLA2 levels in 84 human subjects. The subjects included 24 subjects with diabetes, 32 subjects with metabolic syndrome, and 75 subjects receiving statin treatment. Subjects were administered the sPLA2 inhibitor A-002, a prodrug form of A-001, twice a day at varying dosages from 50 to 500 mg. The structures of A-002and A-001 are set forth below. At two weeks and four weeks after the first administration, sPLA2 levels were measured and compared to pre-administration baseline levels.
84 subjects with stable coronary artery disease were randomized to receive placebo or A-002 via oral administration twice a day over a four week administration period. […]

[1] = A-002 (500 mg), non-statin subgroup of ITT population
[2] = A-002 Total (all dose groups), ITT subjects exhibiting at least 3 out of 5 metabolic syndrome criteria
[3] = A-002 Total (all dose groups), non-statin subgroup of ITT population
[4] = Total (all doses), ITT population
[5] = Total (all doses), diabetes subgroup of ITT population
[6] = Total (all doses), non-diabetes subgroup of ITT population
[7] = Total (all doses), statin subgroup of ITT population

CCc1c(C(=O)C(N)=O)c2c(OCC(=O)OC)cccc2n1Cc1ccccc1 [A-002, [[3-(2-Amino-1,2-dioxoethyl)-2-ethyl-1-(phenylmethyl)-1H-indol-4-yl]oxy]acetic acid methyl ester]
sPLA2 level, Week 4, Range (A-002 (500 mg), ITT subjects exhibiting at least 3 out of 5 metabolic syndrome criteria): 0.05 to 0.10 ng/mL
sPLA2 level, Baseline, Mean [1]: 2.30 ng/mL
sPLA2 level, Baseline, Median [1]: 2.30 ng/mL
sPLA2 level, Baseline, Range [1]: 1.80 to 2.80 ng/mL
sPLA2 level, Change from baseline at week 2, Mean [1]: -2.25 ng/mL
sPLA2 level, Change from baseline at week 2, Median [1]: -2.25 ng/mL
sPLA2 level, Change from baseline at week 2, Range [1]: -2.75 to -1.75 ng/mL
sPLA2 level, Change from baseline at week 4, Mean [1]: -2.08 ng/mL
sPLA2 level, Change from baseline at week 4, Median [1]: -2.08 ng/mL
sPLA2 level, Change from baseline at week 4, Range [1]: -2.40 to -1.75 ng/mL
sPLA2 level, Week 2, Mean [1]: 0.05 ng/mL
sPLA2 level, Week 2, Median [1]: 0.05 ng/mL
sPLA2 level, Week 2, Range [1]: 0.05 to 0.05 ng/ml
sPLA2 level, Week 4, Mean [1]: 0.23 ng/mL
sPLA2 level, Week 4, Median [1]: 0.23 ng/mL
sPLA2 level, Week 4, Range [1]: 0.05 to 0.40 ng/mL
sPLA2 level, Baseline, Mean [2]: 3.17 ng/mL
sPLA2 level, Baseline, Median [2]: 2.70 ng/mL
sPLA2 level, Baseline, Range [2]: 0.05 to 8.80 ng/mL
sPLA2 level, Change from baseline at week 2, Mean [2]: -2.41 ng/mL
sPLA2 level, Change from baseline at week 2, Median [2]: -2.45 ng/mL
sPLA2 level, Change from baseline at week 2, Range [2]: −5.30 to +2.85 ng/ml
sPLA2 level, Change from baseline at week 4, Mean [2]: -2.76 ng/mL
sPLA2 level, Change from baseline at week 4, Median [2]: -2.30 ng/mL
sPLA2 level, Change from baseline at week 4, Range [2]: -6.40 to 0.00 ng/mL
sPLA2 level, Week 2, Mean [2]: 0.65 ng/mL
sPLA2 level, Week 2, Median [2]: 0.30 ng/mL
sPLA2 level, Week 2, Range [2]: 0.05 to 4.00 ng/mL
sPLA2 level, Week 4, Mean [2]: 0.43 ng/mL
sPLA2 level, Week 4, Median [2]: 0.25 ng/mL
sPLA2 level, Week 4, Range [2]: 0.05 to 2.40 ng/mL
sPLA2 level, Baseline, Mean [3]: 2.92 ng/mL
sPLA2 level, Baseline, Median [3]: 2.80 ng/mL
sPLA2 level, Baseline, Range [3]: 1.80 to 4.90 ng/mL
sPLA2 level, Change from baseline at week 2, Mean [3]: -2.13 ng/mL
sPLA2 level, Change from baseline at week 2, Median [3]: -2.00 ng/mL
sPLA2 level, Change from baseline at week 2, Range [3]: -2.75 to -1.75 ng/mL
sPLA2 level, Change from baseline at week 4, Mean [3]: -2.49 ng/mL
sPLA2 level, Change from baseline at week 4, Median [3]: -2.20 ng/mL
sPLA2 level, Change from baseline at week 4, Range [3]: -4.40 to -1.70 ng/mL
sPLA2 level, Week 2, Mean [3]: 0.58 ng/mL
sPLA2 level, Week 2, Median [3]: 0.48 ng/mL
sPLA2 level, Week 2, Range [3]: 0.05 to 1.30 ng/mL
sPLA2 level, Week 4, Mean [3]: 0.65 ng/mL
sPLA2 level, Week 4, Median [3]: 0.50 ng/mL
sPLA2 level, Week 4, Range [3]: 0.05 to 1.20 ng/mL
serum sPLA2 levels (ITT population, stable coronary artery disease, A-002 50, 100, 250 or 500 mg oral twice a day, end of weeks two and four vs baseline, dose-independent): decreased serum sPLA2 levels
sPLA2 Change from baseline at week 2, Mean [4]: -2.35 ng/mL
sPLA2 Change from baseline at week 2, Median [4]: -2.40 ng/mL
sPLA2 Change from baseline at week 2, Range [4]: −5.30 to +2.85 ng/ml
sPLA2 Change from baseline at week 4, Mean [4]: -2.53 ng/mL
sPLA2 Change from baseline at week 4, Median [4]: -2.35 ng/mL
sPLA2 Change from baseline at week 4, Range [4]: -6.40 to 0.20 ng/mL
sPLA2 level, Baseline, Mean [4]: 2.99 ng/mL
sPLA2 level, Baseline, Median [4]: 2.70 ng/mL
sPLA2 level, Baseline, Range [4]: 0.05 to 8.80 ng/mL
sPLA2 level, Week 2, Mean [4]: 0.60 ng/mL
sPLA2 level, Week 2, Median [4]: 0.30 ng/mL
sPLA2 level, Week 2, Range [4]: 0.05 to 4.40 ng/mL
sPLA2 level, Week 4, Mean [4]: 0.51 ng/mL
sPLA2 level, Week 4, Median [4]: 0.35 ng/mL
sPLA2 level, Week 4, Range [4]: 0.05 to 2.40 ng/mL
sPLA2 Change from baseline at week 2, Mean [5]: -2.03 ng/mL
sPLA2 Change from baseline at week 2, Median [5]: -2.40 ng/mL
sPLA2 Change from baseline at week 2, Range [5]: −4.80 to +2.85 ng/ml
sPLA2 Change from baseline at week 4, Mean [5]: -2.31 ng/mL
sPLA2 Change from baseline at week 4, Median [5]: -1.90 ng/mL
sPLA2 Change from baseline at week 4, Range [5]: −5.70 to +0.20 ng/ml
sPLA2 level, Baseline, Mean [5]: 2.91 ng/mL
sPLA2 level, Baseline, Median [5]: 2.75 ng/mL
sPLA2 level, Baseline, Range [5]: 0.05 to 6.00 ng/mL
sPLA2 level, Week 2, Mean [5]: 0.67 ng/mL
sPLA2 level, Week 2, Median [5]: 0.50 ng/mL
sPLA2 level, Week 2, Range [5]: 0.05 to 2.90 ng/mL
sPLA2 level, Week 4, Mean [5]: 0.53 ng/mL
sPLA2 level, Week 4, Median [5]: 0.50 ng/mL
sPLA2 level, Week 4, Range [5]: 0.05 to 1.50 ng/mL
sPLA2 Change from baseline at week 2, Mean [6]: -2.48 ng/mL
sPLA2 Change from baseline at week 2, Median [6]: -2.40 ng/mL
sPLA2 Change from baseline at week 2, Range [6]: -5.30 to -0.40 ng/mL
sPLA2 Change from baseline at week 4, Mean [6]: -2.63 ng/mL
sPLA2 Change from baseline at week 4, Median [6]: -2.45 ng/mL
sPLA2 Change from baseline at week 4, Range [6]: -6.40 to -0.55 ng/mL
sPLA2 level, Baseline, Mean [6]: 3.02 ng/mL
sPLA2 level, Baseline, Median [6]: 2.60 ng/mL
sPLA2 level, Baseline, Range [6]: 0.60 to 8.80 ng/mL
sPLA2 level, Week 2, Mean [6]: 0.57 ng/mL
sPLA2 level, Week 2, Median [6]: 0.30 ng/mL
sPLA2 level, Week 2, Range [6]: 0.05 to 4.40 ng/mL
sPLA2 level, Week 4, Mean [6]: 0.51 ng/mL
sPLA2 level, Week 4, Median [6]: 0.30 ng/mL
sPLA2 level, Week 4, Range [6]: 0.05 to 2.40 ng/mL
sPLA2 Change from baseline at week 2, Mean [7]: -2.37 ng/mL
sPLA2 Change from baseline at week 2, Median [7]: -2.43 ng/mL
sPLA2 Change from baseline at week 2, Range [7]: −5.30 to +2.85 ng/ml
sPLA2 Change from baseline at week 4, Mean [7]: -2.53 ng/mL
sPLA2 Change from baseline at week 4, Median [7]: -2.43 ng/mL
sPLA2 Change from baseline at week 4, Range [7]: −6.40 to +0.20 ng/ml
sPLA2 level, Baseline, Mean [7]: 3.00 ng/mL
sPLA2 level, Baseline, Median [7]: 2.70 ng/mL
sPLA2 level, Baseline, Range [7]: 0.05 to 8.80 ng/mL
sPLA2 level, Week 2, Mean [7]: 0.60 ng/mL
sPLA2 level, Week 2, Median [7]: 0.30 ng/mL
sPLA2 level, Week 2, Range [7]: 0.05 to 4.40 ng/mL
sPLA2 level, Week 4, Mean [7]: 0.50 ng/mL
sPLA2 level, Week 4, Median [7]: 0.30 ng/mL
sPLA2 level, Week 4, Range [7]: 0.05 to 2.40 ng/mL
sPLA2 levels compared to pre-administration baseline (all subject subpopulations (diabetic/non-diabetic, metabolic syndrome/non-metabolic syndrome, statin/non-statin), all dosages 50 to 500 mg twice a day, two and four weeks): substantial decrease in sPLA2 levels
serum sPLA2 levels (diabetic and non-diabetic subpopulations, A-002 50-500 mg oral twice a day, weeks two and four): decrease was observed
serum sPLA2 levels (metabolic syndrome subpopulation, A-002 50-500 mg oral twice a day, weeks two and four): decrease was observed
serum sPLA2 levels (statin and non-statin subpopulations, A-002 50-500 mg oral twice a day, weeks two and four): decrease was observed
